Values after ≈ are worked out from the molar mass of the structure shown.
Tests used:
Type in all cases: cell-based
[1] = system: broad panel of different clinical isolates; test: microbe, parasite or virus in culture
Summary of the method: (§1)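 Per CLSI, MICs by broth microdilution or agar dilution; strains other than streptococci and anaerobes were sub-cultured overnight at 35° C on blood agar, with a final broth inoculum of 5×10^5 CFU/mL.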

[2] = system: E. coli armA; test: microbe, parasite or virus in culture; settings: Escherichia coli, E. coli HAV#056; Clinical, armA
Summary of the method: as §1

[3] = system: S. pneumoniae ATCC 49619; test: MIC (broth microdilution or agar dilution, CLSI); settings: Streptococcus pneumoniae, ATCC49619, S. pneumoniae HAV#003, ATCC 49619; read-out: MIC
Summary of the method: as §1

[4] = system: K. oxytoca Clinical; test: MIC (broth microdilution or agar dilution, CLSI); settings: Klebsiella oxytoca; K. oxytoca HAV#450; Clinical; read-out: MIC
Summary of the method: as §1

[5] = system: S. aureus ATCC 700699; test: MIC (broth microdilution or agar dilution, CLSI); settings: Staphylococcus aureus, ATCC 700699 / VISA
Summary of the method: as §1

[6] = system: S. aureus ATCC 29213; test: MIC (broth microdilution or agar dilution, CLSI); settings: Staphylococcus aureus, ATCC29213, S. aureus HAV#001, ATCC 29213, MP-549; read-out: MIC
Summary of the method: as §1

[7] = system: S. pneumoniae ATCC 6303; test: MIC (broth microdilution or agar dilution, CLSI); settings: Streptococcus pneumoniae, ATCC6303; S. pneumoniae HAV#351, ATCC 6303; read-out: MIC
Summary of the method: as §1

[8] = system: S. pyogenes ATCC 19615; test: MIC (broth microdilution or agar dilution, CLSI); settings: Streptococcus pyogenes, ATCC19615, S. pyogenes HAV#004, ATCC 19615; read-out: MIC
Summary of the method: as §1

[9] = system: S. aureus ATCC BAA-1707 (MRSA); test: MIC (broth microdilution or agar dilution, CLSI); settings: Staphylococcus aureus; S. aureus HAV#016, ATCC BAA-1707; MRSA; read-out: MIC
Summary of the method: as §1

[10] = system: E. coli ATCC 25922; test: MIC (broth microdilution or agar dilution, CLSI); settings: Escherichia coli, ATCC25922; E. coli HAV#006, ATCC 25922; read-out: MIC
Summary of the method: as §1

[11] = system: E. coli LptD; test: MIC (broth microdilution or agar dilution, CLSI); settings: Escherichia coli, E. coli HAV#040; LptD; read-out: MIC
Summary of the method: as §1

[12] = system: S. pyogenes MMX 946; cErmB; test: MIC (broth microdilution or agar dilution, CLSI); settings: Streptococcus pyogenes; S. pyogenes HAV#035, MMX 946; cErmB, mac-resistant; read-out: MIC
Summary of the method: as §1

Work on `CO/N=C(\C(=O)N[C@@H]1C(=O)N2C(C(=O)O)=C(CSc3nc(=O)c(=O)[nH]n3C)CS[C@H]12)c1csc(N)n1` [Ceftriaxone] yielded an MIC ([1]; Acinetobacter baumannii, A. baumannii HAV#651, Clinical) of 4 µg/mL (≈ 7.21 µM), an MIC ([1]; Acinetobacter baumannii, A. baumannii HAV#652 Clinical) of 16 µg/mL (≈ 28.9 µM) and an MIC ([1]; Acinetobacter baumannii, A. baumannii HAV#653, Clinical) of 2 µg/mL (≈ 3.61 µM). It also gave an MIC ([1]; Acinetobacter baumannii, A. baumannii HAV#654, Clinical) of 4 µg/mL (≈ 7.21 µM), an MIC ([1]; Acinetobacter baumannii, A. baumannii HAV#655, Clinical) of 64 µg/mL (≈ 115 µM) and an MIC ([1]; Acinetobacter baumannii, A. baumannii HAV#656, Clinical) of 64 µg/mL (≈ 115 µM). The MIC ([1]; Acinetobacter baumannii, A. baumannii HAV#657, Clinical) was 64 µg/mL (≈ 115 µM), the MIC ([1]; Acinetobacter baumannii, A. baumannii HAV#658, Clinical) was 16 µg/mL (≈ 28.9 µM) and the MIC ([1]; Acinetobacter baumannii, A. baumannii HAV#659, Clinical) was 32 µg/mL (≈ 57.7 µM). It also gave an MIC ([1]; Acinetobacter baumannii, A. baumannii HAV#660, Clinical) of 32 µg/mL (≈ 57.7 µM), an MIC ([1]; Acinetobacter baumannii, A. baumannii HAV#661, Clinical) of 2 µg/mL (≈ 3.61 µM) and an MIC ([1]; Acinetobacter baumannii, A. baumannii HAV#662, Clinical) of 32 µg/mL (≈ 57.7 µM). The MIC ([1]; Acinetobacter baumannii, A. baumannii HAV#663, Clinical) was 16 µg/mL (≈ 28.9 µM), the MIC ([1]; Acinetobacter baumannii, A. baumannii HAV#664, Carbapenem R) was 64 µg/mL (≈ 115 µM) and the MIC ([1]; Enterococcus faecalis, E. faecalis HAV#607, Clinical) was over 256 µg/mL. The MIC ([1]; Enterococcus faecalis, E. faecalis HAV#608, Clinical) was over 256 µg/mL, the MIC ([1]; Enterococcus faecalis, E. faecalis HAV#609, Clinical) was over 256 µg/mL and the MIC ([1]; Enterococcus faecalis, E. faecalis HAV#610, Clinical) was over 256 µg/mL. For the same molecule, the MIC ([1]; Enterococcus faecalis, S. faecalis 5060, Line R & Vanco R) was over 256 µg/mL, the MIC ([1]; Enterococcus faecalis, S. faecalis 5074, Line R) was 256 µg/mL (≈ 462 µM) and the MIC ([1]; Enterococcus faecalis, VRE, E. faecalis HAV#606, Clinical) was over 256 µg/mL. It also gave an MIC ([1]; Enterococcus faecium, E. faecium HAV#327, Clinical) of 0.5 µg/mL (≈ 0.902 µM), an MIC ([1]; Enterococcus faecium, E. faecium HAV#328, Clinical) of over 128 µg/mL and an MIC ([1]; Enterococcus faecium, E. faecium HAV#329, Clinical) of over 256 µg/mL. It also gave an MIC ([1]; Escherichia coli, E. coli HAV#503, Clinical) of over 128 µg/mL, an MIC ([1]; Escherichia coli, E. coli HAV#511, Clinical) of 16 µg/mL (≈ 28.9 µM) and an MIC ([1]; Escherichia coli, E. coli HAV#512, Clinical) of under 0.06 µg/mL. For the same molecule, the MIC ([1]; Escherichia coli, E. coli HAV#513, Clinical) was 0.125 µg/mL (≈ 0.225 µM), the MIC ([1]; Escherichia coli, E. coli HAV#514, Clinical) was 0.125 µg/mL (≈ 0.225 µM) and the MIC ([1]; Escherichia coli, E. coli HAV#516, ESBL-producing) was 64 µg/mL (≈ 115 µM). The MIC ([1]; Klebsiella pneumoniae, K. pneumoniae HAV#404, Clinical) was 64 µg/mL (≈ 115 µM), the MIC ([1]; Klebsiella pneumoniae, K. pneumoniae HAV#405, Clinical) was 64 µg/mL (≈ 115 µM) and the MIC ([1]; Klebsiella pneumoniae, K. pneumoniae HAV#406, Clinical) was under 0.06 µg/mL. The MIC ([1]; Klebsiella pneumoniae, K. pneumoniae HAV#407, Clinical) was 1 µg/mL (≈ 1.8 µM), the MIC ([1]; Klebsiella pneumoniae, K. pneumoniae HAV#408, Clinical) was 2 µg/mL (≈ 3.61 µM) and the MIC ([1]; Klebsiella pneumoniae, K. pneumoniae HAV#409, ESBL-producing) was 128 µg/mL (≈ 231 µM). For the same molecule, the MIC ([1]; Neisseria gonorrhoeae, N. gonorrhoeae HAV#701, Clinical) was 0.125 µg/mL (≈ 0.225 µM), the MIC ([1]; Neisseria gonorrhoeae, N. gonorrhoeae HAV#702, Clinical) was 0.25 µg/mL (≈ 0.451 µM) and the MIC ([1]; Staphylococcus aureus, MRSA, S. aureus HAV#017, MRSA Col(Colindale, England)) was over 128 µg/mL. For the same molecule, the MIC ([1]; Staphylococcus aureus, MRSA, S. aureus HAV#218, Line R) was 32 µg/mL (≈ 57.7 µM), the MIC ([1]; Staphylococcus aureus, MRSA, S. aureus HAV#220, Line R) was over 128 µg/mL and the MIC ([1]; Staphylococcus aureus, MSSA, S. aureus HAV#219, Line R) was 2 µg/mL (≈ 3.61 µM). It also gave an MIC ([1]; Staphylococcus aureus, S. aureus HAV#052, mecA, norA, fosB, blaZ) of 64 µg/mL (≈ 115 µM), an MIC ([1]; Staphylococcus aureus, S. aureus HAV#053 mecA, norA, fosB) of 128 µg/mL (≈ 231 µM) and an MIC ([1]; Staphylococcus aureus, S. aureus HAV#054, mecA, norA, spcl, aad1, fosB, ermA, aac6′-aph2″, blaZ) of over 256 µg/mL. For the same molecule, the MIC ([1]; Staphylococcus aureus, S. aureus HAV#211, Clinical) was over 64 µg/mL, the MIC ([1]; Staphylococcus aureus, S. aureus HAV#212, Clinical) was 32 µg/mL (≈ 57.7 µM) and the MIC ([1]; Staphylococcus aureus, S. aureus HAV#213, Clinical) was 1 µg/mL (≈ 1.8 µM). For the same molecule, the MIC ([1]; Staphylococcus aureus, S. aureus HAV#214, Clinical) was 4 µg/mL (≈ 7.21 µM), the MIC ([1]; Staphylococcus aureus, S. aureus HAV#215, Clinical) was 1 µg/mL (≈ 1.8 µM) and the MIC ([1]; Staphylococcus aureus, S. aureus HAV#216, Clinical, cfr) was 128 µg/mL (≈ 231 µM). For the same molecule, the MIC ([1]; Staphylococcus aureus, S. aureus HAV#217, cfr) was 64 µg/mL (≈ 115 µM), the MIC ([1]; Staphylococcus epidermidis, S. epidermidis HAV# 275 Clinical, cfr) was over 128 µg/mL and the MIC ([1]; Staphylococcus epidermidis, S. epidermidis HAV# 276, cfr) was over 128 µg/mL. For the same molecule, the MIC ([1]; Staphylococcus epidermidis, S. epidermidis HAV#277, Line R) was over 128 µg/mL, the MIC ([1]; Staphylococcus epidermidis, S. epidermidis HAV#278 Line R) was over 128 µg/mL and the MIC ([1]; Staphylococcus epidermidis, S. epidermidis HAV#279, Line R) was 4 µg/mL (≈ 7.21 µM). The MIC ([1]; Staphylococcus haemolyticus, S. haemolyticus 5052, Line R & Methicillin R) was over 256 µg/mL, the MIC ([1]; Streptococcus pneumoniae, ATCC700673, S. pneumoniae HAV#352, ATCC 700673, MDR) was 1 µg/mL (≈ 1.8 µM) and the MIC ([1]; Streptococcus pneumoniae, ATCCBAA255, S. pneumoniae HAV#354, ATCC-BAA-255) was 1 µg/mL (≈ 1.8 µM). It also gave an MIC ([1]; Streptococcus pneumoniae, ATCCBAA334, S. pneumoniae HAV#353, ATCC-BAA-334) of 1 µg/mL (≈ 1.8 µM), an MIC ([1]; Streptococcus pneumoniae, S. pneumoniae HAV#356, Clinical) of 1 µg/mL (≈ 1.8 µM) and an MIC ([1]; Streptococcus pneumoniae, S. pneumoniae HAV#358, Clinical) of 1 µg/mL (≈ 1.8 µM). The MIC [2] was at most 0.06 µg/mL, the MIC [3] was 0.06 µg/mL (≈ 0.108 µM) and the MIC [4] was 64 µg/mL (≈ 115 µM). For the same molecule, the MIC [5] was over 128 µg/mL, the MIC [6] was 2 µg/mL (≈ 3.61 µM) and the MIC [7] was 0.06 µg/mL (≈ 0.108 µM). For the same molecule, the MIC [8] was 0.06 µg/mL (≈ 0.108 µM), the MIC [9] was 64 µg/mL (≈ 115 µM) and the MIC [10] was 0.125 µg/mL (≈ 0.225 µM). It also gave an MIC [11] of at most 0.06 µg/mL and an MIC [12] of at most 0.03 µg/mL.
